For data set [1], the system named is murine CD8^+ T cells. The experiment in a line: Cell growth and viability of murine CD8^+ T cells. The note with it: 7 days. The data set is classed as cell-based. As for the experimental part: After 7 days of culture, we assessed the abundance of CD62L^hiCD44^hi (TCM-like) T cells by flow cytometry (Fig. 1a). We additionally determined the effect of each compound on cell growth and viability (Fig. 1b and Extended Data Fig. 1a).
B16F10 cells were originally purchased from ATCC (catalogue no. CRL-6475) and genetically modified to express OVA, enhanced green fluorescent protein (GFP) and neomycin phosphotransferase. The resulting OVA expression B16F10-OVA cells were cultured in DMEM (catalogue no. 11995065, Thermo Fisher Scientific) containing 0.75 mg ml^−1 G418 sulphate (catalogue no. 10131027, Thermo Fisher Scientific). HEK 293T cells were purchased from Takara Bio (catalogue no. 632180) and cultured in DMEM. SKOV3 was purchased from ATCC (catalogue no. HTB-77) and cultured in McCoy’s 5A (Modified) Medium (catalogue no. 16600082, Thermo Fisher Scientific). Raji-GFP-Luc cells were purchased from Biocytogen (catalogue no. B-HCL-010) and cultured in Roswell Park Memorial Institute (RPMI) 1640 (catalogue no. 21875, Thermo Fisher Scientific). Jurkat cells were purchased from ATCC (catalogue no. TIB-152) and cultured in RPMI 1640. RAW 264.7 cells were purchased from ATCC (catalogue no. TIB-71) and cultured in RPMI 1640. HeLa cells were a gift from P. Lehner (University of Cambridge) and were authenticated using short tandem repeat profiling (Eurofins Genomics). HeLa cells were cultured in DMEM. MEFs were isolated from macerated embryonic day (E) 12.5–13.5 embryos. A whole litter of embryos without sex selection were used. Stable transfection with SV40 large T antigen passage 3 was used for immortalization. Cells were subcultured over 17 more passages and maintained in DMEM[63]. All media was supplemented with 10% FCS (catalogue no. 10270106, Gibco), 100 U ml^−1 penicillin and 100 µg ml^−1 streptomycin (catalogue no. P4333, Sigma-Aldrich). […] Cell number and viability was determined using the ADAM-MC Automated Cell Counter (NanoEntek), CellDrop Automated Cell Counter (DeNovix) or TC20 Automated Cell Counter (Bio-Rad Laboratories). […]

The test system of data set [2] is H3 lysine methylation in human CD8^+ T cells. The experiment in a line: Histone 3 methylation western blot. Type of data set: cell-based. Particulars: 7 days. The method, then: Histones were extracted with the Histone Extraction Kit (catalogue no. ab113476, Abcam). Proteins were separated by SDS–PAGE and transferred to polyvinylidene fluoride (PVDF) membranes. Total protein stain was obtained using non-stain protein labelling reagent (catalogue no. A44448, Thermo Fisher Scientific). Membranes were then blocked in 5% milk prepared in PBS plus 0.05% Tween-20, incubated with primary antibodies overnight at 4 °C and horseradish peroxidase (HRP)-conjugated secondary antibodies (catalogue nos. HAF008 and HAF007, R&D Systems) for 1 h the next day. After enhanced chemiluminescence (ECL) exposure (catalogue no. GERPN2106, Sigma-Aldrich), membranes were imaged using an iBrightCL1000 (Thermo Fisher Scientific). […] 13998); and anti-H3k27ac (catalogue no.

As to `CCCCCCCCOC(=O)[C@@H](O)CCC(=O)[O-].[Na+]` [octyl ester S-2HG, (2S)-2-hydroxyglutaric acid octyl ester sodium salt, reference compound], in data set [1], the “concentration from which cell growth is decreased” value is listed as at least 400 µM.
For `O=C(O)CCC(=O)C(=O)O` [αKG, α-ketoglutarate, reference compound], the “H3K9me2 levels on addition of αKG to DEG” value in data set [2] (500 µM αKG with 500 µM DEG) is “not reduced”. In data set [2] (equimolar αKG (500 µM) with 500 µM DEG), the “DEG-induced increase in H3K9 and H3K27 trimethylation on addition of αKG” value is “abrogated”.

Values taken from paper PMC10590756, “Glutarate regulates T cell metabolism and anti-tumour immunity” (Nature Metabolism, 2023).
